# From patent US9096624B2 (OSI Pharmaceuticals, LLC, priority 2009, dated 2015)
# Legend:
# [1] = target: T1, FAK (Homo sapiens, UniProt Q05397); assay: Cell-based capture ELISA for inhibition of FAK autophosphorylation [pY397] in MiaPaCa2 cells; conditions: MIA-PaCa2 cells, + 50% mouse plasma (Table 3); read-out: Mean FAK Cell Mechanistic IC50 + 50% mP MIA-PaCa2
# Experimental: Cell-Based Assays for Inhibition of FAK Autophosphorylation: MiaPaCa2 and U87MG
# ELISA kit from Invitrogen (KHO0441).
# Reagents Provided in Biosource FAK [pY397]
# The cells were then suspended in cell assay medium.
# [2] = target: T1, FAK; assay: biochemical
# T1 sequence (Q05397 whole entry): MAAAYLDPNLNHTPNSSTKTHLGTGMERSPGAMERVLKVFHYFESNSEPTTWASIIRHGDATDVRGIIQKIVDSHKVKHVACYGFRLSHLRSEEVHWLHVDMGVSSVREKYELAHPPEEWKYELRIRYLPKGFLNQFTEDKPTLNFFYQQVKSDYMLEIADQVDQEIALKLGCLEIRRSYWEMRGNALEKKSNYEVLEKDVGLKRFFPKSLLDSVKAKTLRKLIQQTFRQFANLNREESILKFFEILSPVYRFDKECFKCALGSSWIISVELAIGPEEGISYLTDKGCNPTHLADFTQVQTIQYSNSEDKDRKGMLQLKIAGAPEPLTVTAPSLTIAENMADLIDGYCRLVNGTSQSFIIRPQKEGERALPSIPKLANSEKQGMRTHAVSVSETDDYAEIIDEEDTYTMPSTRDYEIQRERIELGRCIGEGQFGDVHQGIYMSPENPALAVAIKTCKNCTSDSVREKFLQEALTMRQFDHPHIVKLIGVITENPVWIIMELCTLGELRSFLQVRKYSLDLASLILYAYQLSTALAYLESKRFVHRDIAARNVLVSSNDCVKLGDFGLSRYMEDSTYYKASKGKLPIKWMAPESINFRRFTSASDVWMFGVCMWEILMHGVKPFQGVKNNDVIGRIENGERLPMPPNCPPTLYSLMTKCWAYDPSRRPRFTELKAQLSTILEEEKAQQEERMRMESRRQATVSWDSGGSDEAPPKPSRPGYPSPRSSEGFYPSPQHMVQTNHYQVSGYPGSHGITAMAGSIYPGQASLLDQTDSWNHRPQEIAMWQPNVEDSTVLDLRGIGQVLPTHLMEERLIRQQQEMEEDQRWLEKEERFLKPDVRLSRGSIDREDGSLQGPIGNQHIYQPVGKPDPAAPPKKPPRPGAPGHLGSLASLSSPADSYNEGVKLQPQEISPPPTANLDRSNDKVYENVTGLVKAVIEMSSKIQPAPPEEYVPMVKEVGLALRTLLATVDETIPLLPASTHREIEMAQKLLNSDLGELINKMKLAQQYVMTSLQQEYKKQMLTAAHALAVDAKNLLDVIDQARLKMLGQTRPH
Structure (SMILES),IC50 [1],IC50 [2]
"CCOP(=O)(Cc1ccc(Nc2ncc(C(F)(F)F)c(Nc3ccc(C(=O)O)c4c3C(=O)N(C)C4)n2)c(OC)c1)OCC [Example 129, 7-{[2-({4-[(Diethoxyphosphoryl)methyl]-2-methoxyphenyl}amino)-5-(trifluoromethyl)pyrimidin-4-yl]amino}-2-methyl-1-oxo-2,3-dihydro-1H-isoindole-4-carboxylic acid]",1 to 10 µM,< 1 µM
"CCOP(=O)(Cc1ccc(Nc2ncc(C(F)(F)F)c(Nc3cccc4ccn(C)c(=O)c34)n2)cc1)OCC [Example 131, Diethyl [4-({4-[(2-methyl-1-oxo-1,2-dihydroisoquinolin-8-yl)amino]-5-(trifluoromethyl)pyrimidin-2-yl}amino)benzyl]phosphonate]",< 1 µM,< 1 µM
"CCOP(=O)(Cc1ccc(Nc2ncc(C(F)(F)F)c(Nc3cccc4c3C(=O)N(C)CC4)n2)cc1)OCC [Example 132, Diethyl [4-({4-[(2-methyl-1-oxo-1,2,3,4-tetrahydroisoquinolin-8-yl)amino]-5-(trifluoromethyl)pyrimidin-2-yl}amino)benzyl]phosphonate]",< 1 µM,< 1 µM
"CCOP(=O)(Cc1ccc(Nc2ncc(C(F)(F)F)c(Nc3ccc(-c4cnn([C@H]5CC[C@H](O)CC5)c4)cc3C(=O)NC)n2)cc1)OCC [Example 137, Diethyl (4-{[4-({4-[1-(trans-4-hydroxycyclohexyl)-1H-pyrazol-4-yl]-2-(methylcarbamoyl)phenyl}amino)-5-(trifluoromethyl)pyrimidin-2-yl]amino}benzyl)phosphonate]",1 to 10 µM,< 1 µM
"CCOP(=O)(Cc1ccc(Nc2ncc(C(F)(F)F)c(Nc3ccc([C@H]4CC[C@@H](O)CC4)cc3C(=O)NC)n2)cc1)OCC [Example 138, Diethyl (4-{[4-{[4-(cis-4-hydroxycyclohexyl)-2-(methylcarbamoyl)phenyl]amino}-5-(trifluoromethyl)pyrimidin-2-yl]amino}benzyl)phosphonate]",< 1 µM,< 1 µM
"CCOP(=O)(Cc1ccc(Nc2ncc(C(F)(F)F)c(Nc3ccc([C@H]4CC[C@@H](O)CC4)cc3C(=O)NC)n2)c(OC)c1)OCC [Example 140, Diethyl (4-{[4-{[4-(cis-4-hydroxycyclohexyl)-2-(methylcarbamoyl)phenyl]amino}-5-(trifluoromethyl)pyrimidin-2-yl]amino}-3-methoxybenzyl)phosphonate]",< 1 µM,< 1 µM
"CCOP(=O)(Cc1ccc(Nc2ncc(C(F)(F)F)c(Nc3ccc(-c4ccn(CCO)n4)c4c3C(=O)N(C)C4)n2)cc1)OCC [Example 142, Diethyl (4-{[4-({7-[1-(2-hydroxyethyl)-1H-pyrazol-3-yl]-2-methyl-3-oxo-2,3-dihydro-1H-isoindol-4-yl}amino)-5-(trifluoromethyl)pyrimidin-2-yl]amino}benzyl)phosphonate]",< 1 µM,< 1 µM
"CCOP(=O)(O)Cc1ccc(Nc2ncc(C(F)(F)F)c(Nc3ccccc3C(=O)NC)n2)c(OC)c1 [Example 143, Ethyl hydrogen (3-methoxy-4-{[4-{[2-(methylcarbamoyl)phenyl]amino}-5-(trifluoromethyl)pyrimidin-2-yl]amino}benzyl)phosphonate]",< 1 µM,< 1 µM
"CCOP(=O)(Cc1ccc(Nc2ncc(C(F)(F)F)c(Nc3cccc4c3C(=O)N(C)C4(C)C)n2)c(OC)c1)OCC [Example 148, Diethyl [3-methoxy-4-({5-(trifluoromethyl)-4-[(1,1,2-trimethyl-3-oxo-2,3-dihydro-1H-isoindol-4-yl)amino]pyrimidin-2-yl}amino)benzyl]phosphonate]",1 to 10 µM,< 1 µM
"CCOP(=O)(Cc1ccc(Nc2ncc(C(F)(F)F)c(Nc3cccc4c3C(=O)N(C)C4(C)C)n2)cc1)OCC [Example 149, Diethyl [4-({5-(trifluoromethyl)-4-[(1,1,2-trimethyl-3-oxo-2,3-dihydro-1H-isoindol-4-yl)amino]pyrimidin-2-yl}amino)benzyl]phosphonate]",1 to 10 µM,< 1 µM
"CCOP(=O)(Cc1ccc(Nc2ncc(C(F)(F)F)c(Nc3ccc(C#N)cc3C(=O)NC)n2)c(OC)c1)OCC [Example 151, Diethyl (4-{[4-{[4-cyano-2-(methylcarbamoyl)phenyl]amino}-5-(trifluoromethyl)pyrimidin-2-yl]amino}-3-methoxybenzyl)phosphonate]",< 1 µM,< 1 µM
"CCOP(=O)(Cc1ccc(Nc2ncc(C(F)(F)F)c(Nc3ccc(-c4cnn([C@H]5CC[C@H](O)CC5)c4)c4c3C(=O)N(C)C4)n2)cc1)OCC [Example 164, Diethyl (4-{[4-({7-[1-(trans-4-hydroxycyclohexyl)-1H-pyrazol-4-yl]-2-methyl-3-oxo-2,3-dihydro-1H-isoindol-4-yl}amino)-5-(trifluoromethyl)pyrimidin-2-yl]amino}benzyl) phosphonate]",< 1 µM,< 1 µM
"CN1Cc2c(c(Nc3nc(Nc4ccc(CP(=O)(OCC(F)(F)F)OCC(F)(F)F)cc4)ncc3C(F)(F)F)ccc2[C@H]2CC[C@H](O)CC2)C1=O [Example 165, Bis(2,2,2-trifluoroethyl) (4-{[4-{[7-(trans-4-hydroxycyclohexyl)-2-methyl-3-oxo-2,3-dihydro-1H-isoindol-4-yl]amino}-5-(trifluoromethyl)pyrimidin-2-yl]amino}benzyl)phosphonate]",< 1 µM,< 1 µM
"CCOP(=O)(Cc1ccc(Nc2ncc(C(F)(F)F)c(Nc3ccc([C@H]4CC[C@@H](OCC)CC4)c4c3C(=O)N(C)C4)n2)cc1)OCC [Example 166, Diethyl (4-{[4-{[7-(cis-4-ethoxycyclohexyl)-2-methyl-3-oxo-2,3-dihydro-1H-isoindol-4-yl]amino}-5-(trifluoromethyl)pyrimidin-2-yl]amino}benzyl)phosphonate]",< 1 µM,< 1 µM
"CCOP(=O)(Cc1ccc(Nc2ncc(C(F)(F)F)c(Nc3ccc([C@H]4CC[C@@H](OCC)CC4)c4c3C(=O)N(C)C4)n2)c(OC)c1)OCC [Example 167, Diethyl (4-{[4-{[7-(cis-4-ethoxycyclohexyl)-2-methyl-3-oxo-2,3-dihydro-1H-isoindol-4-yl]amino}-5-(trifluoromethyl)pyrimidin-2-yl]amino}-3-methoxybenzyl) phosphonate]",< 1 µM,< 1 µM
"CCCP(=O)(CCC)c1cccc(Nc2ncc(C(F)(F)F)c(Nc3ccc(-c4cnn(CCO)c4)c4c3C(=O)N(C)C4)n2)c1 [Example 168, 7-{[2-{[3-(Dipropylphosphoryl)phenyl]amino}-5-(trifluoromethyl)pyrimidin-4-yl]amino}-4-[1-(3-hydroxyethyl)-1H-pyrazol-4-yl]-2-methyl-2,3-dihydro-1H-isoindol-1-one]",< 1 µM,< 1 µM
"CCOP(=O)(Cc1ccc(Nc2ncc(C(F)(F)F)c(Nc3ccc([C@H]4CC[C@H](OCC)CC4)c4c3C(=O)N(C)C4)n2)cc1)OCC [Example 169, Diethyl (4-{[4-{[7-(trans-4-ethoxycyclohexyl)-2-methyl-3-oxo-2,3-dihydro-1H-isoindol-4-yl]amino}-5-(trifluoromethyl)pyrimidin-2-yl]amino}benzyl)phosphonate]",< 1 µM,< 1 µM
